Test results reported in patent US10385372B2, “Methods for thaxtomin production and modified streptomyces with increased thaxtomin production” (priority 2014, dated 2019).

Key:
[1] = system: S. scabies CebR regulator (CebR-His6); experiment: Electromobility gel shift assay (EMSA) with CebR-His6 pre-incubated with cellobiose and cellooligosaccharides; format: binding, Streptomyces scabies; details: EMSA of FIG. 4; for impairment of the CebR DNA-binding ability (quantification of shifted bands): CebR-His6 pre-incubated with oligosaccharide, Cy5-labelled cbs probes 6 nM
Description: Numbers 1 and 2 refer to EMSAs with free probes (6 nM) and with probes incubated with CebR-His6, respectively. Numbers 3 to 7 refer to EMSAs with CebR-His6 pre-incubated with oligosaccharides, i.e. cellobiose (3), cellotriose (4), cellotetraose (5), cellopentaose (6), and cellohexaose (7). Note that cellobiose (3) is the best oligosaccharide for preventing CebR interaction with all CebR-binding sites.
Electromobility gel shift assays (EMSAs) were performed in order to assess binding of the S. scabies CebR regulator (CebR^sca) to the in silico predicted cbs. The scab57761 gene was cloned into pET-22b and overexpressed in Escherichia coli Rosetta (DE3) cells. The resulting recombinant His-tagged CebR (CebR-His6) was purified from the IPTG-induced E. coli cytoplasmic extracts by Nickel-NTA affinity column. […] Under the same conditions, strong CebR-binding to cbs^cebE-R and cbs^bglC, which were used as positive controls of genes known to be directly controlled by CebR (Schlösser 2000; Marushima 2009), was observed (FIG. 3).
Experimental in vitro validations of predicted cis-acting elements allowed proposing a signaling pathway from cellobiose sensing and transport to thaxtomin biosynthesis (FIG. 5). […] Once inside the cell, cellobiose (and to a lesser extent cellotriose) prevents CebR-binding to cbs^txtR-A and cbs^txtB allowing expression of txtA, txtB and txtR. Consequently, TxtR complexed to cellobiose would be able to increase the expression levels of txtA and txtB, the thaxtomin biosynthetic genes.
EMSAs with 34-bp double-stranded probes (generated by PCR, Table 2) were performed using Cy5-labeled cbs probes (6 nM and 30 nM final concentration) and His6-tagged CebR at a final concentration between 0.08 and 3.2 μM in a total reaction volume of 50 μl. All reactions were carried out in EMSA buffer (10 mM Tris-HCl, pH 7.5, 1 mM dithiothreitol [DTT], 0.25 mM CaCl2, 0.5 mM MgCl2, 50 mM KCl, and 2% glycerol) containing excess of nonspecific DNA (salmon sperm DNA). After 15 min of incubation at room temperature, reaction mixtures were loaded onto a 1% (wt/vol) agarose gel. Bound and unbound probes were separated by gel electrophoresis for 30 min at 100 V at room temperature, and fluorescent DNA was visualized using a Typhoon Trio+ variable-mode imager (FRFC 2.4506.08).

[2] = system: S. scabies 87-22 and ΔcebR; experiment: Thaxtomin production on ISP-4 plates with and without cellobiose supply (HPLC); format: cell-based, Streptomyces scabies; details: ISP-4 medium; wild-type or ΔcebR background; FIGS. 8A and 8B
Source text: FIGS. 8A-B illustrate genetic complementation of the cebR mutant scored by thaxtomin production on ISP-4 plates. […] Although pigmentation is not visible in the black and white photos, FIG. 8B is a graphic illustration HPLC analysis of thaxtomin production on the ISP-4 plates from FIG. 8A. […] Thaxtomin production is reverted back to wild-type levels when the mutation is genetically complemented (cebR mutant transformed with pRLIF8 containing the cebR gene and its promoter region).
The production of thaxtomin by both strains grown on ISP-4 with and without cellobiose supply was compared. […] The further increase in toxin production by the mutant upon addition of cellobiose is most likely due to the function of cellobiose as ligand of the transcriptional activator TxtR, which drives the expression of the thaxtomin biosynthetic genes txtA and txtB (Joshi et al. 2007) (FIG. 5).
Mycelial suspensions of S. scabies strains were prepared from 48-72 h-old TSB-grown cultures by pelleting the mycelia, washing twice with sterile water, and resuspending in 1 ml sterile water to obtain an optical density at 600 nm (OD600 mn) of 1.0. […] Thaxtomin A was purified from the supernatant and analyzed by HPLC as described previously (Johnson et al. 2007). […]

Compound	impairment of the CebR DNA-binding ability (quantification of shifted bands) [1]	allosteric effector inhibiting CebR from binding to its DNA targets ([1]; compared with cellotriose to cellohexaose)	effect of addition on thaxtomin production [2]
O=C[C@H](O)[C@@H](O)[C@H](O[C@@H]1O[C@H](CO)[C@@H](O)[C@H](O)[C@H]1O)[C@H](O)CO [cellobiose]	56%	best allosteric effector	significant increase
OC[C@H]1O[C@@H](O[C@H]2[C@H](O)[C@@H](O)[C@H](O[C@H]3[C@H](O)[C@@H](O)[C@H](O[C@H]4[C@H](O)[C@@H](O)[C@H](O[C@H]5[C@H](O)[C@@H](O)[C@H](O[C@H]6[C@H](O)[C@@H](O)C(O)O[C@@H]6CO)O[C@@H]5CO)O[C@@H]4CO)O[C@@H]3CO)O[C@@H]2CO)[C@H](O)[C@@H](O)[C@@H]1O (some centres unmarked) [cellohexaose]	12%	–	–
OC[C@H]1O[C@@H](O[C@H]2[C@H](O)[C@@H](O)[C@H](O[C@H]3[C@H](O)[C@@H](O)C(O)O[C@@H]3CO)O[C@@H]2CO)[C@H](O)[C@@H](O)[C@@H]1O (some centres unmarked) [cellotriose]	20%	–	–
